# Source: the PolyMetriX glass transition set
# ± gives the standard deviation of the reports.
row,SMILES,glass transition temperature [°C]
1,*c1ccc2c(c1)C(=O)N(c1cccc(P(=O)(c3ccccc3)c3cccc(N4C(=O)c5ccc(C(*)(C(F)(F)F)C(F)(F)F)cc5C4=O)c3)c1)C2=O (repeat unit),271.00
2,*Oc1ccc(C(=O)c2ccc(Oc3ccc(C(=O)c4c(C(=O)c5ccc(*)cc5)c(-c5ccc(F)cc5)c(-c5ccc(F)cc5)c(-c5ccc(F)cc5)c4-c4ccc(F)cc4)cc3)cc2)cc1 (repeat unit),260.00
3,*OC(CC(*)=O)C(C)(Cl)Cl (repeat unit),109.00
4,*Oc1c(C)cc(-c2cc(C)c(OC(=O)CCCCCC(*)=O)c(C)c2)cc1C (repeat unit),96.00
5,*C1CC2CC1C(*)C2CCCCCC (repeat unit),252.00
6,*CCCCCCCCCCCCOC(=O)NCCCCCCNC(=O)O* (repeat unit),36.00
7,*Cc1cccc(CNC(=O)C2=C(C(=O)N*)C3C=CC2C3)c1 (repeat unit),291.00
8,*Oc1ccc(C2(c3ccc(Oc4ccc(C(=O)Oc5ccc(C6(c7ccc(OC(=O)c8ccc(*)cc8)cc7)CCC(c7ccccc7)CC6)cc5)cc4)cc3)CCC(C(C)(C)C)CC2)cc1 (repeat unit),172.00
9,*CC(*)(C)C(=O)OCCCOc1ccc(C(=O)Oc2ccc3ccc(=O)oc3c2)cc1 (repeat unit),68.00
10,*CC(*)(C)C(=O)OCCCCCCCCCCCOc1ccc(C(=O)Oc2ccc(C#N)cc2)cc1 (repeat unit),10.00
11,*C(=O)c1ccc2c(c1)C(=O)N(c1ccc(Oc3ccc(C(=O)c4ccc(Oc5ccc(N6C(=O)c7ccc(*)cc7C6=O)cc5)cc4)cc3)cc1)C2=O (repeat unit),252.00
12,*CC(C#N)C(CCC(C)(O)C=C)C(*)(C)C (repeat unit),50.00
13,*c1ccc2c(c1)C(=O)N(c1ccc(C(=O)Nc3ccc(Oc4ccc(NC(=O)c5ccc(N6C(=O)c7ccc(C(*)(C(F)(F)F)C(F)(F)F)cc7C6=O)cc5)cc4)cc3)cc1)C2=O (repeat unit),322.00
14,*O[Si](C)(C)CCCC(=O)Oc1ccc(/C=N/c2ccc(Cc3ccc(/N=C/c4ccc(OC(=O)CCC[Si](*)(C)C)cc4)cc3)cc2)cc1 (repeat unit),68.00
15,*CCN(*)C(=O)c1ccc2ccccc2c1 (repeat unit),130.00
16,*CCN(CCOC(=O)NCC1(C)CC(NC(=O)O*)CC(C)(C)C1)c1ccc(/N=N/c2ccc(C#N)cc2)cc1 (repeat unit),136.00
17,*c1ccc(-c2nc3cc(Oc4ccc(NC(=O)c5ccc6c(c5)C(=O)N(c5ccc(C(c7ccc(N8C(=O)c9ccc(C(=O)Nc%10ccc(Oc%11ccc%12nc(-c%13ccccc%13)c(*)nc%12c%11)cc%10)cc9C8=O)cc7)(C(F)(F)F)C(F)(F)F)cc5)C6=O)cc4)ccc3nc2-c2ccccc2)cc1 (repeat unit),293.00
18,*CC(*)(C)C(=O)OCCN(CC)c1ccc(/N=N/c2ccc([N+](=O)[O-])cc2)cc1 (repeat unit),126.00
19,*c1ccc(Oc2ccc(N3C(=O)c4ccc(Oc5ccc(Sc6ccc(Oc7ccc8c(c7)C(=O)N(*)C8=O)cc6)cc5)cc4C3=O)cc2)cc1 (repeat unit),212.00
20,*CC(*)(F)C(=O)OCC(F)(F)C(F)F (repeat unit),90.50
21,*c1cccc(OCCCCOc2cccc(N3C(=O)c4ccc(-c5ccc6c(c5)C(=O)N(*)C6=O)cc4C3=O)c2)c1 (repeat unit),175.00
22,*c1ccc(Oc2cccc(Oc3ccc(N4C(=O)c5ccc(Oc6cc7ccccc7cc6Oc6ccc7c(c6)C(=O)N(*)C7=O)cc5C4=O)cc3)c2)cc1 (repeat unit),208.00

row,SMILES,glass transition temperature [°C]
1,*CCCC(CCNC(=O)c1ccc(C(=O)N*)cc1)C(C)C (repeat unit),150.00
2,*OC1CCC(OC(*)=O)CC1 (repeat unit),138.00
3,*c1ccc2c(c1)C(=O)N(c1ccc(N(c3ccc(C#N)cc3)c3ccc(N4C(=O)c5ccc(C(*)(C(F)(F)F)C(F)(F)F)cc5C4=O)cc3)cc1)C2=O (repeat unit),321.00
4,*Oc1ccc(C(c2ccc(Oc3ccc(C(=O)c4ccccc4-c4ccccc4C(=O)c4ccc(*)cc4)cc3)cc2)(C(F)(F)F)C(F)(F)F)cc1 (repeat unit),178.50
5,*CCCCCCCOC(=O)Nc1ccc(C)c(NC(=O)O*)c1 (repeat unit),61.00
6,*CCOC(=O)Nc1ccc(CCCc2ccc(NC(=O)O*)cc2)cc1 (repeat unit),74.10
7,*c1ccc(Oc2ccc(S(=O)(=O)c3ccc(Oc4ccc(-c5ncc(*)o5)cc4C(F)(F)F)cc3)cc2)c(C(F)(F)F)c1 (repeat unit),210.00
8,*CCCCCCNC(=O)C(CC)CC(CC)C(=O)N* (repeat unit),94.00
9,*CC(COC)O* (repeat unit) [Poly(3-methoxypropylene oxide) ],-62 ± 1.2
10,*CC(*)C(=O)c1ccc(C(C)C)cc1 (repeat unit),62.50
11,*CCCCCCOc1ccc(/C=C2\CC/C(=C\c3ccc(OCCCCCCOP(=O)(O*)OCC)c(OC)c3)C2=O)cc1OC (repeat unit),75.00
12,*Oc1ccc(C(=O)c2ccccc2)c(-c2cc(Oc3ccc(C(c4ccc(*)cc4)(C(F)(F)F)C(F)(F)F)cc3)ccc2C(=O)c2ccccc2)c1 (repeat unit),164.00
13,*C(=O)Nc1ccc(Oc2ccc(C3(c4ccc(Oc5ccc(NC(=O)c6ccc7c(c6)C(=O)N(c6ccc(C)c(N8C(=O)c9ccc(*)cc9C8=O)c6)C7=O)cc5)cc4)NC(=O)c4ccccc43)cc2)cc1 (repeat unit),315.00
14,*c1ccc(Oc2ccc(-c3cc(-c4ccc(Oc5ccc(-c6cc(*)nc7ccccc67)cc5)cc4)c4ccccc4n3)cc2)cc1 (repeat unit),300.00
15,*C(*)C(=O)OCCC (repeat unit),-15.00
16,*Oc1ccc(C2(c3ccc(Oc4ccc5c(=O)n6c7cc(-c8ccc9c(c8)nc8c%10ccc(*)c%11cccc(c(=O)n98)c%11%10)ccc7nc6c6cccc4c56)cc3)c3ccccc3-c3ccccc32)cc1 (repeat unit),421.00
17,*C1C(*)C2CC1C1C=CCC12 (repeat unit),145.00
18,*c1ccc(-n2c(=O)c3cc4c(=O)n(*)c(=O)c4cc3c2=O)cc1 (repeat unit),417.00
19,*C(=O)Nc1ccc(Oc2ccc(C(C)(C)c3cccc(C(C)(C)c4ccc(Oc5ccc(N6C(=O)c7ccc(*)cc7C6=O)cc5)cc4)c3)cc2)cc1 (repeat unit),177.00
20,*CC(*)(CC(=O)OCCOCCOCCOCCOCCOCCOCCOC)C(=O)OCCOCCOCCOCCOCCOCCOCCOC (repeat unit),-40.50
21,*O[Si](*)(C)CCCCCCCCCCC(=O)Oc1ccc(C(=O)OCCOc2ccc(C(=O)OC3CCC4(C)C(=CCC5C4CCC4(C)C(C(C)CCCC(C)C)CCC54)C3)cc2)cc1 (repeat unit),25.00
22,*O[Si](*)(C)CCCCCCCCCCC(F)(F)C(F)(F)C(F)(F)C(F)(F)C(F)(F)C(F)(F)C(F)(F)C(F)(F)F (repeat unit),-78.00
